Values after ≈ are worked out from the molar mass of the structure shown.
Tested on: opfGWT1 expressing yeast
Assay: Measurement of antimalarial agent activity using opfGWT1-expressing yeast (growth inhibition, MIC)
Format: cell-based
Conditions: Saccharomyces cerevisiae, 48 h, read-out: MIC (μg/m1) opfGWT1 […]; minimum concentration at which turbidity (660 nm) was 0.1 or less; SD culture medium, 96 well plate, 30° C. for 2 days; final highest concentration 25 μg/ml
Experimental: Compounds having antimalarial activity were screened, using the opfGWT1 expressing yeast, which expresses the malaria protozoa GWT1 gene. The opfGWT1 expressing yeast was prepared according to the methods described in Example 1 to Example 3 of WO 2004/048567.
The test compound was serially diluted twice in SD culture medium (Sabouraud-dextrose culture medium) so that the final highest concentration was 25 μg/ml and dispensed into a 96 well plate so as to obtain 50 μl/well. An overnight culture solution of the opfGWT1 expressing yeast diluted to 1/1000 was added therein in the amount of 50 μl/well addition, the plate was incubated at 30° C. for 2 days, then turbidity at 660 nm was measured.

Row | Structure (SMILES) | MIC [µg/mL]
1 | Nc1ncccc1C(=O)NCc1ccc(Cc2cccc(Cl)c2)s1 | 12.5 (≈ 34.9 µM)
2 | Nc1ncccc1C(=O)NCc1ccc(Cc2cccc(Cl)c2)o1 [Reference Example A-4, 2-Amino-N-(5-(3-chloro-benzyl)-furan-2-ylmethyl)-nicotinamide] | 6.25 (≈ 18.3 µM)
3 | Nc1ncccc1C(=O)NCc1ccc(Cc2cccc(F)c2)o1 [Reference Example A-6, 2-Amino-N-(5-(3-fluoro-benzyl)-furan-2-ylmethyl)-nicotinamide] | 25 (≈ 76.8 µM)
4 | Nc1ccc(C(=O)NCc2ccc(Oc3ccccc3)s2)c(N)n1 [Reference Example A-54, 2,6-diamino-N-(5-phenoxy-thiophene-2-ylmethyl)-nicotinamide] | 25 (≈ 73.4 µM)
5 | Cc1cccc(Oc2ccc(CNC(=O)c3cccnc3N)s2)c1 [Reference Example A-64, 2-Amino-N-(5-m-tolyloxy-thiophen-2-ylmethyl)-nicotinamide] | 12.5 (≈ 36.8 µM)
6 | Nc1ncccc1C(=O)NCc1ccc(Oc2ccccc2)s1 [Reference Example A-67, 2-Amino-N-(5-phenoxy-thiophen-2-ylmethyl)-nicotinamide] | 12.5 (≈ 38.4 µM)
7 | Nc1ncccc1C(=O)NCc1ccc(Oc2cccc(F)c2)s1 [Reference Example A-68, 2-Amino-N-(5-(3-fluoro-phenoxy)-thiophen-2-ylmethyl)-nicotinamide] | 12.5 (≈ 36.4 µM)
8 | Nc1ncccc1C(=O)NCc1ccc(Oc2ccc(F)cc2)s1 [Reference Example A-69, 2-Amino-N-(5-(4-fluoro-phenoxy)-thiophen-2-ylmethyl)-nicotinamide] | 25 (≈ 72.8 µM)
9 | Nc1ncccc1C(=O)NCc1cc(Oc2ccccc2)cs1 [Reference Example A-72, 2-Amino-N-(4-phenoxy-thiophen-2-ylmethyl)-nicotinamide] | 12.5 (≈ 38.4 µM)
10 | Nc1ncccc1C(=O)NCc1ccc(Oc2cccc(Cl)c2)s1 [Reference Example A-73, 2-Amino-N-(5-(3-chloro-phenoxy)-thiophen-2-ylmethyl)-nicotinamide] | 6.25 (≈ 17.4 µM)
11 | CC(=O)c1ccc(C(=O)NCc2ccc(Oc3ccccc3)s2)c(N)n1 [Reference Example A-98, 6-Acetyl-2-amino-N-(5-phenoxy-thiophen-2-ylmethyl)-nicotinamide] | 12.5 (≈ 34 µM)
12 | CCOCCNc1ccc(C(=O)NCc2ccc(Oc3ccccc3)s2)c(N)n1 [Reference Example A-105, 2-Amino-6-(2-ethoxy-ethylamino)-N-(5-phenoxy-thiophen-2-ylmethyl)-nicotinamide] | 25 (≈ 60.6 µM)
13 | COCc1ccc(C(=O)NCc2ccc(Oc3cccc(F)c3)s2)c(N)n1 [Reference Example A-123, 2-Amino-N-(5-(3-fluoro-phenoxy)-thiophen-2-ylmethyl)-6-methoxymethyl-nicotinamide] | 25 (≈ 64.5 µM)
14 | C=Cc1ccc(C(=O)NCc2ccc(Oc3ccccc3)s2)c(N)n1 [Reference Example A-168, 2-Amino-N-(5-phenoxy-thiophen-2-ylmethyl)-6-vinyl-nicotinamide] | 12.5 (≈ 35.6 µM)
15 | Nc1ccc(C(=O)NCc2ccc(OCc3cccc(Cl)c3)cc2)c(N)n1 [Reference Example A-173, 2,6-Diamino-N-(4-(3-chloro-benzyloxy)-benzyl)-nicotinamide] | 12.5 (≈ 32.6 µM)
16 | Nc1nc(CCF)ccc1C(=O)NCc1ccc(Oc2ccccc2)s1 [Reference Example A-177, 2-Amino-6-(2-fluoro-ethyl)-N-(5-phenoxy-thiophen-2-ylmethyl)-nicotinamide] | 25 (≈ 67.3 µM)
17 | CCCCOCc1ccc(CNC(=O)c2ccc(COC)nc2N)cc1 [Reference Example A-182] | 6.25 (≈ 17.5 µM)
18 | CCCCOc1ccc(CNC(=O)c2ccc(COC)nc2N)cc1 [Reference Example A-188, 2-Amino-N-(4-butoxy-benzyl)-6-methoxymethyl-nicotinamide] | 6.25 (≈ 18.2 µM)
19 | O=C(NCc1ccc(Oc2cccc(F)c2)s1)c1ccc2ncccc2c1 [Reference Example E-65, Quinoline-6-carboxylic acid (5-(3-fluorophenoxy)thiophen-2-ylmethyl)amide] | 25 (≈ 66.1 µM)

— patent US20090227799A1 (priority 2004, published 2009)
